± gives the expanded uncertainty stated by the source.
Columns and labels:
[1] = excess molar enthalpy (molar enthalpy of mixing); xn = mol fraction of the nth substance listed; details: 298.15 K, Liquid, Calvet calorimetry
[2] = 298.15 K; 101.33 kPa; Liquid

CCCCCC(=O)OC(=O)CCCCC [caproic anhydride] + CCCCCCCCCCCCCCCC
[1]
Details | excess molar enthalpy [kcal/mol]
x1 = 0.0307 | 0.0555 ± 0.000789
x1 = 0.0596 | 0.0993 ± 0.00131
x1 = 0.0868 | 0.135 ± 0.00174
x1 = 0.1125 | 0.163 ± 0.0021
x1 = 0.1368 | 0.189 ± 0.00239
x1 = 0.1597 | 0.209 ± 0.00263
x1 = 0.1815 | 0.227 ± 0.00287
x1 = 0.2022 | 0.242 ± 0.00311
x1 = 0.2219 | 0.255 ± 0.00311
x1 = 0.2406 | 0.266 ± 0.00335
x1 = 0.2627 | 0.278 ± 0.00359
x1 = 0.282 | 0.289 ± 0.00359
x1 = 0.2889 | 0.293 ± 0.00359
x1 = 0.2962 | 0.296 ± 0.00382
x1 = 0.3038 | 0.3 ± 0.00382
x1 = 0.3118 | 0.303 ± 0.00382
x1 = 0.3202 | 0.307 ± 0.00382
x1 = 0.3291 | 0.31 ± 0.00382
x1 = 0.3373 | 0.313 ± 0.00406
x1 = 0.346 | 0.316 ± 0.00406
x1 = 0.355 | 0.318 ± 0.00406
x1 = 0.3646 | 0.321 ± 0.00406
x1 = 0.3747 | 0.324 ± 0.00406
x1 = 0.3853 | 0.326 ± 0.00406
x1 = 0.3954 | 0.329 ± 0.00406
x1 = 0.4059 | 0.331 ± 0.00406
x1 = 0.417 | 0.333 ± 0.0043
x1 = 0.4262 | 0.333 ± 0.0043
x1 = 0.4357 | 0.334 ± 0.0043
x1 = 0.4457 | 0.335 ± 0.0043
x1 = 0.4562 | 0.336 ± 0.0043
x1 = 0.4671 | 0.336 ± 0.0043
x1 = 0.4787 | 0.336 ± 0.0043
x1 = 0.4907 | 0.336 ± 0.0043
x1 = 0.5034 | 0.335 ± 0.0043
x1 = 0.5144 | 0.334 ± 0.0043
x1 = 0.5258 | 0.333 ± 0.0043
x1 = 0.5377 | 0.331 ± 0.00406
x1 = 0.5502 | 0.33 ± 0.00406
x1 = 0.5633 | 0.328 ± 0.00406
x1 = 0.5771 | 0.325 ± 0.00406
x1 = 0.5893 | 0.322 ± 0.00406
x1 = 0.602 | 0.318 ± 0.00406
x1 = 0.6153 | 0.314 ± 0.00406
x1 = 0.6292 | 0.31 ± 0.00382
x1 = 0.6437 | 0.304 ± 0.00382
x1 = 0.6589 | 0.299 ± 0.00382
x1 = 0.6721 | 0.293 ± 0.00359
x1 = 0.6857 | 0.286 ± 0.00359
x1 = 0.6999 | 0.279 ± 0.00359
x1 = 0.7147 | 0.271 ± 0.00335
x1 = 0.7287 | 0.262 ± 0.00335
x1 = 0.7433 | 0.254 ± 0.00311
x1 = 0.7584 | 0.244 ± 0.00311
x1 = 0.7742 | 0.233 ± 0.00287
x1 = 0.7907 | 0.221 ± 0.00287
x1 = 0.8078 | 0.208 ± 0.00263
x1 = 0.8233 | 0.196 ± 0.00239
x1 = 0.8393 | 0.181 ± 0.00232
x1 = 0.856 | 0.166 ± 0.00213
x1 = 0.8733 | 0.15 ± 0.00194
x1 = 0.8914 | 0.132 ± 0.00172
x1 = 0.9102 | 0.112 ± 0.00148
x1 = 0.9269 | 0.0931 ± 0.00124
x1 = 0.9411 | 0.0725 ± 0.001
x1 = 0.962 | 0.0493 ± 0.000717
x1 = 0.9807 | 0.0265 ± 0.000454

CCCCC(=O)OC(=O)CCCC [pentanoic anhydride] + CCCCCCCCCCCCCC
[1]
Details | excess molar enthalpy [kcal/mol]
x1 = 0.0319 | 0.0605 ± 0.00086
x1 = 0.0618 | 0.11 ± 0.00146
x1 = 0.0899 | 0.149 ± 0.00191
x1 = 0.1164 | 0.182 ± 0.00232
x1 = 0.1414 | 0.208 ± 0.00263
x1 = 0.165 | 0.232 ± 0.00287
x1 = 0.1873 | 0.251 ± 0.00311
x1 = 0.2126 | 0.271 ± 0.00335
x1 = 0.2363 | 0.287 ± 0.00359
x1 = 0.2587 | 0.3 ± 0.00382
x1 = 0.2798 | 0.311 ± 0.00382
x1 = 0.2997 | 0.32 ± 0.00406
x1 = 0.3186 | 0.328 ± 0.00406
x1 = 0.3364 | 0.335 ± 0.0043
x1 = 0.3569 | 0.342 ± 0.0043
x1 = 0.3714 | 0.35 ± 0.0043
x1 = 0.381 | 0.352 ± 0.0043
x1 = 0.3911 | 0.355 ± 0.00454
x1 = 0.402 | 0.357 ± 0.00454
x1 = 0.413 | 0.359 ± 0.00454
x1 = 0.4294 | 0.36 ± 0.00454
x1 = 0.4312 | 0.362 ± 0.00454
x1 = 0.4416 | 0.362 ± 0.00454
x1 = 0.4524 | 0.363 ± 0.00454
x1 = 0.4638 | 0.364 ± 0.00454
x1 = 0.4757 | 0.364 ± 0.00454
x1 = 0.4883 | 0.364 ± 0.00454
x1 = 0.5015 | 0.363 ± 0.00454
x1 = 0.5127 | 0.362 ± 0.00454
x1 = 0.5245 | 0.361 ± 0.00454
x1 = 0.5369 | 0.36 ± 0.00454
x1 = 0.5498 | 0.357 ± 0.00454
x1 = 0.5633 | 0.355 ± 0.00454
x1 = 0.5776 | 0.351 ± 0.0043
x1 = 0.5926 | 0.348 ± 0.0043
x1 = 0.6049 | 0.344 ± 0.0043
x1 = 0.6178 | 0.34 ± 0.0043
x1 = 0.6313 | 0.335 ± 0.0043
x1 = 0.6454 | 0.33 ± 0.00406
x1 = 0.6601 | 0.324 ± 0.00406
x1 = 0.6754 | 0.317 ± 0.00406
x1 = 0.6916 | 0.308 ± 0.00382
x1 = 0.7052 | 0.301 ± 0.00382
x1 = 0.7194 | 0.293 ± 0.00359
x1 = 0.7341 | 0.284 ± 0.00359
x1 = 0.7495 | 0.274 ± 0.00359
x1 = 0.7655 | 0.263 ± 0.00335
x1 = 0.7822 | 0.25 ± 0.00311
x1 = 0.7997 | 0.236 ± 0.00311
x1 = 0.8145 | 0.224 ± 0.00287
x1 = 0.8299 | 0.21 ± 0.00263
x1 = 0.8459 | 0.195 ± 0.00239
x1 = 0.8625 | 0.178 ± 0.00229
x1 = 0.8798 | 0.16 ± 0.00206
x1 = 0.8978 | 0.14 ± 0.00182
x1 = 0.9133 | 0.121 ± 0.00158
x1 = 0.9294 | 0.101 ± 0.00134
x1 = 0.9461 | 0.0789 ± 0.00108
x1 = 0.9634 | 0.0549 ± 0.000789
x1 = 0.9814 | 0.0287 ± 0.000478

CCCCCCCCCCCCCC [tetradecane]
Details | mass density [kg/m3]
[2] | 760.2 ± 0.62

CCCCCCCCCCCC [dodecane]
Details | mass density [kg/m3]
[2] | 745.28 ± 0.64

Reference: the NIST ThermoML archive (doi:10.1021/je900598y)
